In patent publication US20250236608A1, “EGFR INHIBITORS” (Blueprint Medicines Corporation, priority 2022, published 2025):

Legend:
EGFR L858R = EGFR L858R (Homo sapiens (Human), UniProt P00533, L858R); assay: Biochemical EGFR inhibition assay, EGFR L858R; settings: Caliper mobility shift; 1.0 mM ATP or ATP Km; read-out: Enz EGFR_L858R IC50
EGFR (d746-750) = EGFR (d746-750) (Homo sapiens (Human), UniProt P00533, DEL746-750); assay: Biochemical EGFR inhibition assay, EGFR (d746-750); settings: Caliper mobility shift; 1.0 mM ATP or ATP Km; read-out: Enz EGFR_Exon19-del746-750 IC50
Sequence of EGFR (d746-750) (P00533 other isoform, or with tags, fused parts or gaps del 1-694/del 746-750 limits assumed): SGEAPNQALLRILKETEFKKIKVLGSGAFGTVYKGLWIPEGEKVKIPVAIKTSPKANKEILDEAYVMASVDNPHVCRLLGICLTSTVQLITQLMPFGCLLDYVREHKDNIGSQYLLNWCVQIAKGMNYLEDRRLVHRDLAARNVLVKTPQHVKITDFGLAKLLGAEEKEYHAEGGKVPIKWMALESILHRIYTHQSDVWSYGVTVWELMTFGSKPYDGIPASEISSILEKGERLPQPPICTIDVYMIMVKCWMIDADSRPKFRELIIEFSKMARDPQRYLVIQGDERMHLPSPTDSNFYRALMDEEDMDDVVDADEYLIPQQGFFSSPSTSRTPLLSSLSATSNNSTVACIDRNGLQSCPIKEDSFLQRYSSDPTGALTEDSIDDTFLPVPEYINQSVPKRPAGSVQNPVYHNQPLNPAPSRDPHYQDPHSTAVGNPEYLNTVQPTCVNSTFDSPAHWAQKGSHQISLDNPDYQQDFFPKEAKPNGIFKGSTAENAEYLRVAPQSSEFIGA

[1] = biological target: pEGFR (Tyr1068) in PC-9 cells (Ex19Del) (Homo sapiens (Human), UniProt P00533, DEL746-750); assay: PC-9 pEGFR AlphaLISA assay; format: cell-based; settings: 4 hours incubation, p-EGFR (Tyr1068) AlphaLISA, read-out: Ext pEGFR_PC-9 Ex19Del IC50
Sequence of pEGFR (Tyr1068) in PC-9 cells (Ex19Del) (P00533 other isoform, or with tags, fused parts or gaps del 746-750): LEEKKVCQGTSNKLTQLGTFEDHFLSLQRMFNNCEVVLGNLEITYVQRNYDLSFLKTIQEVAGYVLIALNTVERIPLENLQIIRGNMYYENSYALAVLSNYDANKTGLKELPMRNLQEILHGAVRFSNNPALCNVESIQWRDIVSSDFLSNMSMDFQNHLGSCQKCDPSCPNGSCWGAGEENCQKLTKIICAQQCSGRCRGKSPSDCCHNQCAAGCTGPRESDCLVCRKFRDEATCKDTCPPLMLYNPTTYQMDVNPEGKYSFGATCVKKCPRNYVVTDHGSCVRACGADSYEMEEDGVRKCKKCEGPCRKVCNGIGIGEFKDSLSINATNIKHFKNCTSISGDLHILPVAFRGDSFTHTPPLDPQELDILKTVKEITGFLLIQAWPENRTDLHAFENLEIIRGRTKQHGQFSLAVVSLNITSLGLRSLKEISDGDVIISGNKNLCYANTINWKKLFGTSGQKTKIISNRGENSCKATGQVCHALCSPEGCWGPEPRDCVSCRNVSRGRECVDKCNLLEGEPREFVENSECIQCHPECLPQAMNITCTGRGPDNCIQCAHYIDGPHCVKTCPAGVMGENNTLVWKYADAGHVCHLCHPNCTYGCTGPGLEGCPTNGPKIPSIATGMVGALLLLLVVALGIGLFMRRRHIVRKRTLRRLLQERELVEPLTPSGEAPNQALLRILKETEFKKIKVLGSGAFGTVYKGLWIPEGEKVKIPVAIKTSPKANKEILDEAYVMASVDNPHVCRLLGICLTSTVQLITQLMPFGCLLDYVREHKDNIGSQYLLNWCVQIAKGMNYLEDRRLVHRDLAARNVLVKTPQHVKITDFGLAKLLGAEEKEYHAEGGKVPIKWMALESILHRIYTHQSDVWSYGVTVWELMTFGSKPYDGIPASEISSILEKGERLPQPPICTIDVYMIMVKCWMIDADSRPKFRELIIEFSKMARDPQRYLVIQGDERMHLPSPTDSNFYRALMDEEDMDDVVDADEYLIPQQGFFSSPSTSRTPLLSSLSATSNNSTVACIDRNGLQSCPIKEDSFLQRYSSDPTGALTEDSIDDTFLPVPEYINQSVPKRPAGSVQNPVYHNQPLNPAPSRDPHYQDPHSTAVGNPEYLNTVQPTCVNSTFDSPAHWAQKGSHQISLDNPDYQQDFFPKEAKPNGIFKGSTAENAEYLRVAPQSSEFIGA
Outline: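 PC-9 cells seeded overnight in phenol-free DMEM with 10% FBS, then treated 4 h at 37°C with a 10-point, 4-fold compound series. Lysates assayed for pEGFR Tyr1068 by AlphaLISA SureFire; IC50 from % inhibition vs log concentration.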

Sequence of EGFR L858R (P00533 25-1210 L858R): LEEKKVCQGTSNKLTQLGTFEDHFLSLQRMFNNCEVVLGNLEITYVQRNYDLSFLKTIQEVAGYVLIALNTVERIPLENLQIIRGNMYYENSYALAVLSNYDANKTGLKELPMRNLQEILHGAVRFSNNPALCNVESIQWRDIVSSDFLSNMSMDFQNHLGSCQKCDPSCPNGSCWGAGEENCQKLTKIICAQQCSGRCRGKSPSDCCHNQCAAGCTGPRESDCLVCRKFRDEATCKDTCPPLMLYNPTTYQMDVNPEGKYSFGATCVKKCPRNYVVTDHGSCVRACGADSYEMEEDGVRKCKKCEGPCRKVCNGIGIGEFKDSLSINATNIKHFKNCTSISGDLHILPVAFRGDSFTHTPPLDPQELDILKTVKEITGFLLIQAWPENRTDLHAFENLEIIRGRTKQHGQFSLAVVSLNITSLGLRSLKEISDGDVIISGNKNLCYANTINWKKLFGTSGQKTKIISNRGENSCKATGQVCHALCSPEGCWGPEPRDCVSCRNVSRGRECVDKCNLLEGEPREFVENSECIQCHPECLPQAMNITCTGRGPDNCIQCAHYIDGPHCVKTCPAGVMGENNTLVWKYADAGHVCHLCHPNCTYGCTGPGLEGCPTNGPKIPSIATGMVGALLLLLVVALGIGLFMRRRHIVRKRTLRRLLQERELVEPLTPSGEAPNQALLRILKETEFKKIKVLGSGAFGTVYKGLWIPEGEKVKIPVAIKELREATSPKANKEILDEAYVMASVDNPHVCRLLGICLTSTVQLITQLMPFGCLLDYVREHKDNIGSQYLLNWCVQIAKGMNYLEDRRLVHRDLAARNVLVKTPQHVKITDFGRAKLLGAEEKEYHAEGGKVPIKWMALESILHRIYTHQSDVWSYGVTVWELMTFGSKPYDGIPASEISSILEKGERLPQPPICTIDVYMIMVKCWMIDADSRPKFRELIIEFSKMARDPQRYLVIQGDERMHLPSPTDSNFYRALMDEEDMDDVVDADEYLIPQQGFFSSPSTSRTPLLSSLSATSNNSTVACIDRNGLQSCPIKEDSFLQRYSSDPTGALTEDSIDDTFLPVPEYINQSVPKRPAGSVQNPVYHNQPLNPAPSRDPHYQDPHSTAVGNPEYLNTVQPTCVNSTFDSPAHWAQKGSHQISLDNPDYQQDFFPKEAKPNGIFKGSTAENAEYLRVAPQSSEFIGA

| IC50 (EGFR L858R) | IC50 (EGFR (d746-750)) | IC50 [1] | Structure (SMILES) |
| --- | --- | --- | --- |
| 3.4 nM | 1.8 nM | 10.9 nM | CCn1cc(-c2ncnc3cc(OC)c([C@@H](C)O)cc23)c(-c2ccccc2)n1 (single isomer, unassigned) [Example 106, (R)-1-(4-(1-ethyl-3-phenyl-1H-pyrazol-4-yl)-7-methoxyquinazolin-6-yl)ethan-1-ol or (S)-1-(4-(1-ethyl-3-phenyl-1H-pyrazol-4-yl)-7-methoxyquinazolin-6-yl)ethan-1-ol] |
| 2.8 nM | 1 nM | 0.8 nM | COc1cc2ncnc(-c3cn(C)nc3-c3ccc(F)cc3)c2nc1NC(=O)[C@]12CN(C)C[C@H]1C2(F)F (single isomer, unassigned) [Example 425, (1R,5S)-6,6-difluoro-N-(4-(3-(4-fluorophenyl)-1-methyl-1H-pyrazol-4-yl)-7-methoxypyrido[3,2-d]pyrimidin-6-yl)-3-methyl-3-azabicyclo[3.1.0]hexane-1-carboxamide or (1S,5R)-6,6-difluoro-N-(4-(3-(4-fluorophenyl)-1-methyl-1H-pyrazol-4-yl)-7-methoxypyrido[3,2-d]pyrimidin-6-yl)-3-methyl-3-azabicyclo[3.1.0]hexane-1-carboxamide] |
| 70.5 nM | 78 nM | 953 nM | Cc1nn(C)c(-c2ccccc2)c1-c1ncnc2cc(-c3cnn(C)c3)ccc12 [Example 481, 4-(1,3-dimethyl-5-phenyl-1H-pyrazol-4-yl)-7-(1-methyl-1H-pyrazol-4-yl)quinazoline] |
| 4.9 nM | 2.4 nM | 4.4 nM | COc1cc2ncnc(-c3cn(C)nc3-c3ccccc3)c2cc1NC(=O)[C@@H]1CCCN1C (single isomer, unassigned) [Example 243, (R)—N-(7-methoxy-4-(1-methyl-3-phenyl-1H-pyrazol-4-yl)quinazolin-6-yl)-1-methylpyrrolidine-2-carboxamide or (S)—N-(7-methoxy-4-(1-methyl-3-phenyl-1H-pyrazol-4-yl)quinazolin-6-yl)-1-methylpyrrolidine-2-carboxamide] |
| 0.9 nM | 0.6 nM | 0.7 nM | C[C@H](O)c1cc2c(-c3cn(CC(F)F)nc3-c3ccccc3)ncnc2cc1-c1cnn(C)c1 (single isomer, unassigned) [Example 446, (S)-1-(4-(1-(2,2-difluoroethyl)-3-phenyl-1H-pyrazol-4-yl)-7-(1-methyl-1H-pyrazol-4-yl)quinazolin-6-yl)ethan-1-ol or (R)-1-(4-(1-(2,2-difluoroethyl)-3-phenyl-1H-pyrazol-4-yl)-7-(1-methyl-1H-pyrazol-4-yl)quinazolin-6-yl)ethan-1-ol] |
| 1.2 nM | 0.8 nM | 1 nM | COc1cc2ncnc(-c3cn(C)nc3-c3ccccc3)c2cc1NC(=O)c1cnccc1F [Example 326, 4-fluoro-N-(7-methoxy-4-(1-methyl-3-phenyl-1H-pyrazol-4-yl)quinazolin-6-yl) nicotinamide] |
| 2.7 nM | 0.8 nM | 3.8 nM | COc1cc2ncnc(-c3cn(C)nc3-c3ccccc3)c2nc1NC(=O)c1cccc(F)c1 [Example 313, 3-fluoro-N-(7-methoxy-4-(1-methyl-3-phenyl-1H-pyrazol-4-yl)pyrido[3,2-d]pyrimidin-6-yl)benzamide] |
| 3.5 nM | 0.8 nM | 3.1 nM | COc1cc2ncnc(-c3cn(C)nc3-c3ccccc3)c2nc1NC(=O)C1(C)CCCO1 (stereo not drawn) [Example 316, N-(7-methoxy-4-(1-methyl-3-phenyl-1H-pyrazol-4-yl)pyrido[3,2-d]pyrimidin-6-yl)-2-methyltetrahydrofuran-2-carboxamide] |
| 3.9 nM | 1.5 nM | 4.6 nM | COc1cc2ncnc(-c3cn(C)nc3-c3ccccc3)c2nc1NC(=O)C12CCCN1CCC2 [Example 368, N-(7-methoxy-4-(1-methyl-3-phenyl-1H-pyrazol-4-yl)pyrido[3,2-d]pyrimidin-6-yl)tetrahydro-1H-pyrrolizine-7a(5H)-carboxamide] |
